Here are results for ten compounds from US20230212144A1, “5-MEMBERED HETEROARYL DERIVATIVE CONTAINING AT LEAST ONE N, AND PHARMACEUTICAL COMPOSITION FOR PREVENTING OR TREATING MENTAL DISORDERS, CONTAINING SAME AS ACTIVE INGREDIENT” (DAEGU-GYEONGBUK MEDICAL INNOVATION FOUNDATION, priority 2020, published 2023).

In assay [1] the target is norepinephrine transporter (NET) (Homo sapiens, UniProt P23975). The assay is described as follows: Norepinephrine reuptake inhibition, [3H]-NE, cells transfected with NE transporter cDNA. As to conditions: for Triple reuptake inhibition (Ratio %) NET: compound 1 μM, relative to control without compound (100%), lower value = stronger inhibition.
Procedure: (§1) After removing the medium, each compound of Examples or Comparative Examples diluted to 1 μM in uptake buffer was added to a concentration of 200 μL/well and cultured at 37° C. for 15 minutes. 100 μL of uptake buffer containing 20-30 nM [3H]-DA was added and cultured at 37° C. for 5 minutes. The reaction solution was quickly removed and washed three times with 1 mL ice-cold uptake buffer. After dissolving the resultant in 1% SDS (0.5 mL), the degree of binding of radioisotope-labeled dopamine to the transporter was measured.
(§2) For norepinephrine(NE) and serotonin(5-HT), the degree of binding of radioisotope-labeled norepinephrine or serotonin to the transporter was measured in the same manner as above, except that cells transfected with NE or 5-HT transporter cDNA were used and [3H]-NE or [3H]-5-HT was used as a substrate.
(§3) In addition, when evaluating the reuptake inhibitory effect on dopamine, norepinephrine, and serotonin, the same method was performed without treating each compound of Examples or Comparative Examples as a control, the degree of binding of radioisotope-labeled dopamine, norepinephrine, and serotonin to the transporter was measured, and by using this as a reference (100%), the triple reuptake inhibitory effect was evaluated as a relative ratio (Ratio %). That is, in the control group, the binding of dopamine, norepinephrine, and serotonin to transporters is not inhibited, but when each compound of Examples is treated and thus the binding is inhibited, the Ratio % value decreases.
Assay [2] deals with serotonin transporter (SERT) (Homo sapiens, UniProt P31645). The assay is described as follows: Serotonin reuptake inhibition, [3H]-5-HT, cells transfected with 5-HT transporter cDNA. As to conditions: for Triple reuptake inhibition (Ratio %) SERT: compound 1 μM, relative to control without compound (100%), lower value = stronger inhibition.
Procedure: as §1, §2, §3
Assay [3] deals with dopamine transporter (DAT) (Homo sapiens, UniProt Q01959). The assay is described as follows: Dopamine reuptake inhibition, [3H]-DA, HEK-293 cells transfected with dopamine transporter cDNA. As to conditions: for Triple reuptake inhibition (Ratio %) DAT: compound 1 μM, relative to control without compound (100%), lower value = stronger inhibition.
dopamine transporter (DAT), sequence (Q01959 whole entry, species assumed): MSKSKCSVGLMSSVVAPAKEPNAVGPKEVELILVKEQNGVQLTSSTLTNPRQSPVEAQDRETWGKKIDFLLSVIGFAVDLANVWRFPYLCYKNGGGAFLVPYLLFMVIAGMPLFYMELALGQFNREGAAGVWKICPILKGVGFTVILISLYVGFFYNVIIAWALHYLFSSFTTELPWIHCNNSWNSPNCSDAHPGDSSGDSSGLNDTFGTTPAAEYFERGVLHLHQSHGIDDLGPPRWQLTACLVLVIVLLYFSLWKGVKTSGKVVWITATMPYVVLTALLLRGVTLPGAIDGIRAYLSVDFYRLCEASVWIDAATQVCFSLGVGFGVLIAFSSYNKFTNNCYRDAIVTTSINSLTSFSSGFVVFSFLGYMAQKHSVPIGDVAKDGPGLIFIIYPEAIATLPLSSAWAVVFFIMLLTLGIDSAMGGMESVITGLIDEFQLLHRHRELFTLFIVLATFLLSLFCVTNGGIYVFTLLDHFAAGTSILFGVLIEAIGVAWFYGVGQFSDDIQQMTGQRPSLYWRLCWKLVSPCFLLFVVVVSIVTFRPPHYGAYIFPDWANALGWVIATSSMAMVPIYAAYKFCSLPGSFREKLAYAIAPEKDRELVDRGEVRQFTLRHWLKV
Procedure: as §1, §3

serotonin transporter (SERT), sequence (P31645 whole entry, species assumed): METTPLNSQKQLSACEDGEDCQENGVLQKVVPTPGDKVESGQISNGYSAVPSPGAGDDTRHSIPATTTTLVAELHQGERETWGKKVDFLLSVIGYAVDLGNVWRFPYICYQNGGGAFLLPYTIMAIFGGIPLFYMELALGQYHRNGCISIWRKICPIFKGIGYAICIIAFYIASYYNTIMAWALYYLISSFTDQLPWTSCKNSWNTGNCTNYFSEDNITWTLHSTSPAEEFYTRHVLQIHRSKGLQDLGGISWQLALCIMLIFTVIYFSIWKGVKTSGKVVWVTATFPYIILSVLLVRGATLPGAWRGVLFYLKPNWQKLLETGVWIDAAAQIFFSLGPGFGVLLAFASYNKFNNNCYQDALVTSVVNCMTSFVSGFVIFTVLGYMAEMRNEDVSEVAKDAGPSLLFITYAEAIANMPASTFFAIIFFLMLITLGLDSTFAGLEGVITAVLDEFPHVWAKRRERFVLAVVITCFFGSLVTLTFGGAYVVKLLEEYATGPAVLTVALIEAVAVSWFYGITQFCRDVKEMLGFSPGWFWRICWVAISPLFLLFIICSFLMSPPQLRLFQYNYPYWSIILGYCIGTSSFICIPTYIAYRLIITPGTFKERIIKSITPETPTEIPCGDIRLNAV
norepinephrine transporter (NET), sequence (P23975 whole entry, species assumed): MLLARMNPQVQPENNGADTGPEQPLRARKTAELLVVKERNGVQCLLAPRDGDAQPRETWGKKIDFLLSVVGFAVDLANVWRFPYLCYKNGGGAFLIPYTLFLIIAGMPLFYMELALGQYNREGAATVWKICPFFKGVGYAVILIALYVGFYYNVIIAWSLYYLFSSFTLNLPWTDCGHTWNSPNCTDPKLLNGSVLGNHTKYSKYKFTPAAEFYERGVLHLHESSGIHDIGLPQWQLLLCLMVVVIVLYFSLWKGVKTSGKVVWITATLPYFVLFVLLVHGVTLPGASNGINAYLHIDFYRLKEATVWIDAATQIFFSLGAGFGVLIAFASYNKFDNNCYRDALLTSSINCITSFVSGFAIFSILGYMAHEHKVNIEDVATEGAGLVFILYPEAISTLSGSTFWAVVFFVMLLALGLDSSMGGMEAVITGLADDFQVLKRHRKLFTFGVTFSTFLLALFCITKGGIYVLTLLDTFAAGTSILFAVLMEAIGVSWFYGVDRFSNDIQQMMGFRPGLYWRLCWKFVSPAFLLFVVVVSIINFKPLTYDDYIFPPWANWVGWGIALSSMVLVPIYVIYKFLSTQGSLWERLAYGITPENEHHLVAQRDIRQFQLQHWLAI

Consider `c1ccc(CC2CCN(Cc3nnc(-c4cc5ccccc5[nH]4)[nH]3)CC2)cc1` [Example 1, 2-(5-((4-benzylpiperidin-1-yl)methyl)-4H-1,2,4-triazol-3-yl)-1H-indole], for which, in assay [1], half-maximal inhibition (IC50) required 343 nM and the “Triple reuptake inhibition (Ratio %) NET” value is 26.06%. In addition, in assay [2], 3730 nM corresponded to half-maximal inhibition (IC50) and the “Triple reuptake inhibition (Ratio %) SERT” value amounted to 91.56%. For the same compound, in assay [3], half-maximal inhibition (IC50) was put at 170 nM and the “Triple reuptake inhibition (Ratio %) DAT” value is 14.90%.

As to `Fc1ccc2[nH]c(-c3nnc(CN4CCC(Cc5ccccc5)CC4)[nH]3)cc2c1` [Example 2, 2-(5-((4-benzylpiperidin-1-yl)methyl)-4H-1,2,4-triazol-3-yl)-5-fluoro-1H-indole], in assay [1], the midpoint of inhibition, the IC50, lay at 14 nM and the “Triple reuptake inhibition (Ratio %) NET” value amounted to 2.58%. For the same compound, in assay [2], the IC50 amounted to 5200 nM and the “Triple reuptake inhibition (Ratio %) SERT” value was 67.47%. For the same compound, in assay [3], the IC50 came out at 83 nM and the “Triple reuptake inhibition (Ratio %) DAT” value is reported as 3.94%.

Take `c1ccc(C2CCN(Cc3nnc(-c4cc5ccccc5[nH]4)[nH]3)CC2)cc1` [Example 3, 2-(5-((4-phenylpiperidin-1-yl)methyl)-4H-1,2,4-triazol-3-yl)-1H-indole]: in assay [1], the “Triple reuptake inhibition (Ratio %) NET” value is given as 124.39%. Also, the “Triple reuptake inhibition (Ratio %) SERT” value in assay [2] came out at 95.94%. In addition, in assay [3], the “Triple reuptake inhibition (Ratio %) DAT” value amounted to 81.14%.

Regarding `c1ccc(CN2CCN(Cc3nnc(-c4cc5ccccc5[nH]4)[nH]3)CC2)cc1` [Example 4, 2-(5-((4-benzylpiperazin-1-yl)methyl)-4H-1,2,4-triazol-3-yl)-1H-indole], the “Triple reuptake inhibition (Ratio %) NET” value in assay [1] was found to be 64.76%. For the same compound, the “Triple reuptake inhibition (Ratio %) SERT” value in assay [2] is 90.26%. For the same compound, the “Triple reuptake inhibition (Ratio %) DAT” value in assay [3] was determined as 22.39%.

Take `Clc1ccc(CC2CCN(Cc3nnc(-c4cc5ccccc5[nH]4)[nH]3)CC2)cc1Cl` [Example 5, 2-(5-((4-(3,4-dichlorobenzyl)piperidin-1-yl)methyl)-4H-1,2,4-triazol-3-yl)-1H-indole]: the “Triple reuptake inhibition (Ratio %) NET” value in assay [1] is given as 78.01%. The “Triple reuptake inhibition (Ratio %) SERT” value in assay [2] stood at 91.11%. Moreover, the “Triple reuptake inhibition (Ratio %) DAT” value in assay [3] came out at 88.53%.

For `COc1ccc(CC2CCN(Cc3nnc(-c4cc5ccccc5[nH]4)[nH]3)CC2)cc1` [Example 6, 2-(5-((4-(4-methoxybenzyl)piperidin-1-yl)methyl)-4H-1,2,4-triazol-3-yl)-1H-indole], in assay [1], the “Triple reuptake inhibition (Ratio %) NET” value was 88.83%. The “Triple reuptake inhibition (Ratio %) SERT” value in assay [2] is 70.39%. Also, in assay [3], the “Triple reuptake inhibition (Ratio %) DAT” value stood at 88.63%.

For `Clc1ccc(CC2CCN(Cc3nnc(-c4cc5ccccc5[nH]4)[nH]3)CC2)cc1` [Example 7, 2-(5-((4-(4-chlorobenzyl)piperidin-1-yl)methyl)-4H-1,2,4-triazol-3-yl)-1H-indole], the “Triple reuptake inhibition (Ratio %) NET” value in assay [1] came to 103.43%. Also, the “Triple reuptake inhibition (Ratio %) SERT” value in assay [2] came to 79.48%. In assay [3], the “Triple reuptake inhibition (Ratio %) DAT” value was found to be 73.88%.

`Clc1cccc(CC2CCN(Cc3nnc(-c4cc5ccccc5[nH]4)[nH]3)CC2)c1` [Example 8, 2-(5-((4-(3-chlorobenzyl)piperidin-1-yl)methyl)-4H-1,2,4-triazol-3-yl)-1H-indole]: the “Triple reuptake inhibition (Ratio %) NET” value in assay [1] came to 66.48%. The “Triple reuptake inhibition (Ratio %) SERT” value in assay [2] amounted to 88.65%. Moreover, the “Triple reuptake inhibition (Ratio %) DAT” value in assay [3] amounted to 32.29%.

For the compound `CC(=O)Nc1ccc2[nH]c(-c3nnc(CN4CCC(Cc5ccccc5)CC4)[nH]3)cc2c1` [Example 66, N-(2-(5-((4-benzylpiperidin-1-yl)methyl)-4H-1,2,4-triazol-3-yl)-1H-indol-5-yl)acetamide], in assay [1], the “Triple reuptake inhibition (Ratio %) NET” value was 58.77%. Besides, the “Triple reuptake inhibition (Ratio %) DAT” value in assay [3] turned out to be 51.59%.

Regarding `CCCCOc1ccc2cc(-c3nnc(CN4CCC(Cc5ccccc5)CC4)[nH]3)[nH]c2c1` [Example 69, 2-(5-((4-benzylpiperidin-1-yl)methyl)-4H-1,2,4-triazol-3-yl)-6-butoxy-1H-indole], in assay [1], the “Triple reuptake inhibition (Ratio %) NET” value was found to be 90.43%. The “Triple reuptake inhibition (Ratio %) DAT” value in assay [3] amounted to 50.33%.

As a reminder, the IC50 is the concentration at which inhibition is half-maximal.
